Patent US4774381A, “Herbicide resistant tobacco” (E. I. Du Pont de Nemours and Company, priority 1985, dated 1988)

How the values were obtained:
[1] = system: Isolate 10 (S4/+) callus culture; test: Callus growth on chlorsulfuron-supplemented medium; type: cell-based, Nicotiana tabacum; details: chlorsulfuron at 5 ppb (14 nM); note: key: Callus cultures capable of growth on this medium are designated R (resistant); S denotes sensitive callus cultures that did not grow in the presence of the herbicide
Method: (§1) Table 7, below, indicates sensitivity to chlorsulfuron of ALS activities in progeny of an S4/+ heterozygote. Data are presented as percent of ALS activity in the absence of chlorsulfuron. Each number represents the average of at least three independent experiments. Callus cultures initiated from the individual isolates were tested for growth on medium supplemented with chlorsulfuron at 5 ppb (14 nM).

[2] = system: Isolate 1 (+/+) callus culture; test: Callus growth on chlorsulfuron-supplemented medium; type: cell-based, Nicotiana tabacum; details: chlorsulfuron at 5 ppb (14 nM); note: key: Callus cultures capable of growth on this medium are designated R (resistant); S denotes sensitive callus cultures that did not grow in the presence of the herbicide
Method: as §1

[3] = system: Isolate 7 (+/+) callus culture; test: Callus growth on chlorsulfuron-supplemented medium; type: cell-based, Nicotiana tabacum; details: chlorsulfuron at 5 ppb (14 nM); note: key: Callus cultures capable of growth on this medium are designated R (resistant); S denotes sensitive callus cultures that did not grow in the presence of the herbicide
Method: as §1

[4] = system: Isolate 24 (S4/+) callus culture; test: Callus growth on chlorsulfuron-supplemented medium; type: cell-based, Nicotiana tabacum; details: chlorsulfuron at 5 ppb (14 nM); note: key: Callus cultures capable of growth on this medium are designated R (resistant); S denotes sensitive callus cultures that did not grow in the presence of the herbicide
Method: as §1

[5] = system: Isolate 16 (S4/S4) callus culture; test: Callus growth on chlorsulfuron-supplemented medium; type: cell-based, Nicotiana tabacum; details: chlorsulfuron at 5 ppb (14 nM)
Method: as §1

[6] = system: Isolate 30 (S4/S4) callus culture; test: Callus growth on chlorsulfuron-supplemented medium; type: cell-based, Nicotiana tabacum; details: chlorsulfuron at 5 ppb (14 nM)
Method: as §1

[7] = system: H1 callus culture; test: Callus growth on chlorsulfuron-supplemented medium; type: cell-based, Nicotiana tabacum; details: chlorsulfuron at 5 ppb (14 nM)
Method: as §1

[8] = system: Isolate 27 (S4/S4) callus culture; test: Callus growth on chlorsulfuron-supplemented medium; type: cell-based, Nicotiana tabacum; details: chlorsulfuron at 5 ppb (14 nM)
Method: as §1

[9] = system: Isolate 23 (S4/+) callus culture; test: Callus growth on chlorsulfuron-supplemented medium; type: cell-based, Nicotiana tabacum; details: chlorsulfuron at 5 ppb (14 nM)
Method: as §1

[10] = system: Isolate 9 (S4/+) callus culture; test: Callus growth on chlorsulfuron-supplemented medium; type: cell-based, Nicotiana tabacum; details: chlorsulfuron at 5 ppb (14 nM)
Method: as §1

[11] = system: acetolactate synthase (ALS), Isolate 10 (S4/+) extract; test: ALS activity assay in cell extracts; type: biochemical, Nicotiana tabacum
Method: (§2) Cell suspension cultures of normal (H1) and homozygous mutant (Isolate 16) cell lines were washed in C1 liquid medium. After washing, cells were extracted in a 100 mM potassium phosphate buffer (pH 7.5) containing 0.5 mM MgCl2, 1 mM sodium pyruvate, 0.5 mM thiamine pyrophosphate, 10 micromolar flavine-adenine dinucleotide (FAD) and 10 percent (by volume) glycerol. Polyclar AT (BDH Chemicals Ltd) was added to a final concentration of 250 mg per gram fresh weight of tissue. After centrifugation at 27,000xg for 15 minutes at 4°, an equal volume of a saturated solution of amminium sulfate was added to the supernatant fraction. The resultant precipitate (representing a 0 to 50 percent ammonium sulfate fraction) was redissolved in 100 mM potassium phosphate buffer (pH 7.5) containing 0.5 mM MgCl2, 1 mM sodium pyruvate, and salts were removed by passage through a Sephadex G-25 (Pharmacia PD-10) column.
(§3) ALS activity was assayed in a total volume of 500 microliters containing 100 microliters of the column eluate, 65 mM potassium phosphate buffer (pH 7.5) containing 10 mM MgCl2, 40 mM sodium pyruvate, 250 micromolar thiamine pyrophosphate, 23 micromolar FAD, […] After incubation at 30° for 90 minutes, 250 microliters of 6N H2 SO4 was added to each assay tube, and the tubes were incubated at 55° for 10 minutes to terminate the enzymatic reaction and achieve complete conversion of acetolactate to acetoin. Acetoin content was then measured by a modification of the procedure described by Westerfield, J. Biol. Chem. 161:495 (1945). To each tube was added sequentially 100 microliters 50 percent NaOH, 150 microliters 0.5 percent creatine, and 150 microliters 5 percent alpha-napthol (in 2.5N NaOH). Color development was accelerated by incubation at 55° for 10 minutes. Tubes were then centrifuged, and the optical density was read at 530 nm. Background optical densities, which were subtracted from the optical density values of the reactions, were determined for each extract from parallel assays to which the enzyme extract was added after the addition of 6N H2 SO4. Protein concentrations were measured with Bio-Rad Protein Assay reagent with bovine serum albumin as a standard. Data points and specific activities, which are set forth below and in FIG. 2, represent the average values of at least three independent determinations. ALS activities are presented in FIG. 2 as percent activity in the absence of herbicide.
(§4) Responses to chlorsulfuron were determined for ALS activities in extracts of cells suspension cultures derived from nine individuals that differed with resepct to the S4 mutation. As described above, these individuals were produced by self-fertilization of an S4/+ heterozygote, and their genotypes were established by means of progeny analysis. Callus and plant phenotypes were determined by growth responses of cell cultures and seedlings, respectively, on herbicide-supplemented medium. […] In contrast, all individuals homozygous for the S4 mutation contained a highly resistant form of the enzyme. […] The correlation between both callus and plant phenotype and the response of ALS activity in vitro to the herbicide is both absolute and quantitative.

[12] = system: acetolactate synthase (ALS), Isolate 23 (S4/+) extract; test: ALS activity assay in cell extracts; type: biochemical, Nicotiana tabacum
Method: as §2, §3, §4

[13] = system: acetolactate synthase (ALS), Isolate 1 (+/+) extract; test: ALS activity assay in cell extracts; type: biochemical, Nicotiana tabacum
Method: as §2
(§5) ALS activity was assayed in a total volume of 500 microliters containing 100 microliters of the column eluate, 65 mM potassium phosphate buffer (pH 7.5) containing 10 mM MgCl2, 40 mM sodium pyruvate, 250 micromolar thiamine pyrophosphate, 23 micromolar FAD, and 1, 5, 10, 50, 100, 500 or 1000 ppb chlorsulfuron or sulfometuron-methyl. After incubation at 30° for 90 minutes, 250 microliters of 6N H2 SO4 was added to each assay tube, and the tubes were incubated at 55° for 10 minutes to terminate the enzymatic reaction and achieve complete conversion of acetolactate to acetoin. Acetoin content was then measured by a modification of the procedure described by Westerfield, J. Biol. Chem. 161:495 (1945). To each tube was added sequentially 100 microliters 50 percent NaOH, 150 microliters 0.5 percent creatine, and 150 microliters 5 percent alpha-napthol (in 2.5N NaOH). Color development was accelerated by incubation at 55° for 10 minutes. Tubes were then centrifuged, and the optical density was read at 530 nm. Background optical densities, which were subtracted from the optical density values of the reactions, were determined for each extract from parallel assays to which the enzyme extract was added after the addition of 6N H2 SO4. Protein concentrations were measured with Bio-Rad Protein Assay reagent with bovine serum albumin as a standard. Data points and specific activities, which are set forth below and in FIG. 2, represent the average values of at least three independent determinations. ALS activities are presented in FIG. 2 as percent activity in the absence of herbicide.
as §4

[14] = system: acetolactate synthase (ALS), Isolate 27 (S4/S4) extract; test: ALS activity assay in cell extracts; type: biochemical, Nicotiana tabacum
Method: as §2, §5, §4

In the case of `COc1nc(C)nc(NC(=O)NS(=O)(=O)c2ccccc2Cl)n1` [Chlorsulfuron, chlorsulfuron], the “Callus Phenotype” value [1] is reported as “R”, the “Callus Phenotype” value [2] is reported as “S” and the “Callus Phenotype” value [3] is reported as “S”. The “Callus Phenotype” value [4] was “R”, the “Callus Phenotype” value [5] was “R” and the “Callus Phenotype” value [6] was “R”. The “Callus Phenotype” value [7] was “S”, the “Callus Phenotype” value [8] was “R” and the “Callus Phenotype” value [9] was “R”. For the same compound, the “Callus Phenotype” value [10] was “R”, the “Uninhibited activity (%) in the Presence of Chlorsulfuron” value (shortened to “Uninhibited activity (%)”) ([11]; 10 ppb) was 61% and the “Uninhibited activity (%)” value ([11]; 30 ppb) was 52%. The “Uninhibited activity (%)” value ([11]; 100 ppb) was 45%, the “Uninhibited activity (%)” value ([12]; 10 ppb) was 64% and the “Uninhibited activity (%)” value ([12]; 30 ppb) was 53%. For the same compound, the “Uninhibited activity (%)” value ([12]; 100 ppb) was 46%, the “Uninhibited activity (%)” value ([13]; 10 ppb) was 42% and the “Uninhibited activity (%)” value ([13]; 30 ppb) was 29%. The “Uninhibited activity (%)” value ([13]; 100 ppb) was 23%, the “Uninhibited activity (%)” value ([14]; 10 ppb) was 88% and the “Uninhibited activity (%)” value ([14]; 30 ppb) was 82%. For the same compound, the “Uninhibited activity (%)” value ([14]; 100 ppb) was 79%.
